Structures are written as SMILES. “Also recorded” adds a separate entry of the source.

This assay has as its system human transverse colon epithelial cells. Kind of assay: Transepithelial electrical resistance (TEER) of transverse colon monolayers treated with TNFα. Particulars: for change in TEER as a result of TNF administration: with TNFα, 10, 20, 40 μM, after 48 hours, relative to t=0; for TEER: with TNF. The class given is cell-based. The source says:
Cell Information: Donor 5 Transverse Colon, HISC-0033, Passage 10. Plated onto 4×96-well RepliGut® transwell plates coated with thin hydrogel coating. 2× RepliGut® transwell plates had 1.0 μm pore size (Corning 3380) and 2× RepliGut® transwell plates had 0.4 μm pore size (Corning 7369).
Compound Information: TNFα was supplied by Allis Biosystems and reconstituted according to the manufacturer's instructions. All other compounds were provided by Brightseed in DMSO (Table 1). Stocks were created for each treatment (Table 2) so that the final concentration of an individual compound in the culture media was 0.1% media volume for all compounds.
Proliferative human transverse colon epithelial cells were plated in Altis Expansion media using Altis-established protocols onto 4×96-well RepliGut® transwell plates coated with a thin layer of hydrogel. Cultures were monitored every day using a bright field microscope. Transverse colon epithelial monolayers became confluent on Day 4, at which point media was changed to Altis Differentiation media. The cells were cultured for an additional 2 days. Brightseed compounds and TNFα, listed in Table 2, were diluted in Altis Differentiation media, mixed well, and added to apical and basal compartment of transwell cultures at t=0 hours. All conditions were performed in triplicate. Cells were treated with compounds for a total of 48 hours.
Transepithelial electrical resistance was measured in all transwell cultures at t=0 hours prior to the addition of compounds to determine baseline TEER using an Epithelial Volt/Ohm Meter (World Precision Instruments, EVOM2) and STX100C96 Electrode. TEER was also measured at t=24 hours, t=45 hours, and t=48 hours. The surface area of a 96-well transwell is 0.143 cm^2 per well. Corrected TEER was calculated using the formula below.
(Raw measured TEER of sample transwell−Raw measured TEER of blank transwell)×Surface Area
Statistical analysis was performed using GraphPad Prism software version 9.4.1 (GraphPad Inc., La Jolla, CA, USA). Two-way ANOVA of means from n=3 samples per group was performed to measure simple effects within treatment groups. Tukey's range test was performed to correct for multiple comparisons. Differences between the groups were considered significant at p<0.05.

[1] abbreviates: FIGS. 1-12 (TEER and permeability).

Take `O=C(/C=C/c1ccc(O)c(O)c1)NCCc1ccc(O)cc1` [Compound 1, N-trans-caffeoyltyramine]: the “change in TEER as a result of TNF administration” value (“change in TEER as a result” for short) is “dose-dependent and statistically significant reversal of this decrease”. Further, under setting [1], the “optimal concentration of the study” value was 40 µM and the “rank of effect among the test articles” value is given as “greatest effect”. The “change in TEER as a result” value (listed as NCT) is “improved the change in TEER as a result of TNF administration in a dose-dependent manner; also recorded: protected against (a) decreased TEER”.
As for `COc1cc(/C=C/C(=O)NCCc2ccc(O)cc2)ccc1O` [Compound 2, N-trans-feruloyltyramine], the “change in TEER as a result” value is “dose-dependent and statistically significant reversal of this decrease”. Moreover, the TEER result (10 μM) is “improved TEER”. Further, the TEER result (20 and 40 μM) is recorded as “did not show the same dose-dependent effect”. The “change in TEER as a result” value (listed as NFT) is recorded as “protected against (a) decreased TEER”.

Values taken from US20250205182A1, “COMPOSITIONS AND METHODS FOR IMPROVING GUT PERMEABILITY” (BRIGHTSEED, INC., priority 2022, published 2025).
